Measured values: patent publication US7951802B2, “Use of 7-azaindoles in the inhibition of c-Jun N-terminal kinase” (Eisai R&D Management Co., Ltd., priority 2007, dated 2011)

target: JNK3 (Homo sapiens, UniProt P53779); assay: JNK3 SPA assay (phosphorylation of GST-c-Jun); assay type: biochemical; conditions: 3.33 μM ATP, GST-c-Jun substrate, read-out: IC50 against JNK3
Method: JNK1, JNK2, JNK3—SPA Assay
JNK1, JNK2, JNK3—SPA Assay • 1. Compound is dissolved in DMSO to a convenient concentration and this is diluted in 10% DMSO to a five times concentrate of the desired starting concentration (frequently 1:100). • 2. 10 μl of 500 mM EDTA is added to alternative wells of the Opti-plate row, which will receive kinase reaction plus DMSO. This creates the negative control. • 3. For the JNK2 and JNK3 assay, compounds are prepared in six 2-fold dilutions with water and each concentration is tested in duplicate. For the JNK1 assay compounds are prepared in four 5-fold dilutions with water which are tested in triplicate. Controls are treated identically. • 4. 20 μl per well of each compound concentration is transferred to an Opti-plate, in duplicate. • 5. 30 μl (JNK2/3 SPA) or 50 μl (JNK1 SPA) of substrate solution (25 mM HEPES pH 7.5, 10 mM magnesium acetate with 3.33 μM ATP (JNK2/3) or 2 μM ATP (JNK1), approximately 7.5 kBq [γ-^33P] ATP, GST-c-Jun, in water) is added to each well. • 6. 50 μl (JNK2/3 SPA) or 30 μl (JNK1 SPA) of kinase solution (JNK in 25 mM HEPES pH 7.5, 10 mM Mg Acetate) is added to each well.
• 7. The plate is incubated for 30 minutes at room temperature. • 8. 100 μl of bead/stop solution is added to each well (5 mg/ml glutathione-PVT-SPA beads, 40 mM ATP in PBS). • 9. Plates are sealed and incubated for 30 minutes at room temperature, centrifuged for 10 minutes at 2500 g and counted. • 10. The IC50 values are calculated as the concentration of the compound being tested at which the phosphorylation of c-Jun is decreased to 50% of the control value.

JNK3, sequence (P53779 whole entry, species assumed): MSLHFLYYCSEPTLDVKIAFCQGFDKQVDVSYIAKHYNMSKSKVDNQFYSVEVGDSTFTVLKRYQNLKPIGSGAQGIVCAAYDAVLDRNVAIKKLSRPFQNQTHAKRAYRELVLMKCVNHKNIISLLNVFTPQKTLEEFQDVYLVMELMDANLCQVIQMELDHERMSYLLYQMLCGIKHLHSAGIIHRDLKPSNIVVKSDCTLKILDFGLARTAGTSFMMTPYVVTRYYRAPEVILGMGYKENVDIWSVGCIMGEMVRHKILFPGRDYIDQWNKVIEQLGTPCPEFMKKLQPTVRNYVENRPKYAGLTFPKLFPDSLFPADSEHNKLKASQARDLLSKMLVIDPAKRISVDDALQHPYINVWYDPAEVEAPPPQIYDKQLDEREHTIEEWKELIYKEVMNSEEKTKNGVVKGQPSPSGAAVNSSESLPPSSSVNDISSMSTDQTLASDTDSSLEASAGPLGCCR

Which IC50 does the source give for `COc1nc(-c2c[nH]c3ncc([C@H]4CC[C@H](N5CCCOCC5)CC4)cc23)cs1` [Compound I-124, 3-(2-methoxy-1,3-thiazol-4-yl)-5-[trans-4-(1,4-oxazepan-4-yl)cyclohexyl]-1H-pyrrolo[2,3-b]pyridine] here?
The IC50 was 520 nM.

How did the IC50 turn out when `CN1CCN([C@H]2CC[C@@H](c3cnc4[nH]cc(-c5nc(C(F)(F)F)cs5)c4c3)CC2)CC1` [Compound I-83, 2-(5-((1s,4s)-4-(4-methylpiperazin-1-yl)cyclohexyl)-1H-pyrrolo[2,3-b]pyridin-3-yl)-4-(trifluoromethyl)thiazole] was run?
Its IC50 is 603 nM.

For `FC(F)(F)c1csc(-c2c[nH]c3ncc([C@H]4CC[C@H](N5CCCOCC5)CC4)cc23)n1` [Compound I-80, 4-((1r,4r)-4-(3-(4-(trifluoromethyl)thiazol-2-yl)-1H-pyrrolo[2,3-b]pyridin-5-yl)cyclohexyl)-1,4-oxazepane], which IC50 is on record?
Its IC50 is 513 nM.

How did the IC50 turn out when `CN1CCN([C@H]2CC[C@H](c3cnc4[nH]cc(-c5csc(C6CCCN6C)n5)c4c3)CC2)CC1` (stereo partly drawn) [Compound I-109, 4-(5-((1r,4r)-4-(4-methylpiperazin-1-yl)cyclohexyl)-1H-pyrrolo[2,3-b]pyridin-3-yl)-2-(1-methylpyrrolidin-2-yl)thiazole] was run?
The IC50 was 1740 nM.

Which IC50 does the source give for `CC1CCC(c2cnc3[nH]cc(-c4csc(C(=O)N5CCOCC5)n4)c3c2)CC1` (stereo not drawn) [Compound I-21, {4-[5-(4-Methyl-cyclohexyl)-1H-pyrrolo[2,3-b]pyridin-3-yl]-thiazol-2-yl}-morpholin-4-yl-methanone] here?
Its IC50 is 123 nM.

For `Cc1nc(-c2c[nH]c3ncc(C4CCCCC4)cc23)cs1` [Compound I-58, 4-(5-cyclohexyl-1H-pyrrolo[2,3-b]pyridin-3-yl)-2-methylthiazole], which IC50 is on record?
The IC50 was greater than 2000 nM.

With `CN1CCC(c2nc(-c3c[nH]c4ncc([C@H]5CC[C@H](N6CCCOCC6)CC5)cc34)cs2)CC1` [Compound I-102, 4-((1r,4r)-4-(3-(2-(1-methylpiperidin-4-yl)thiazol-4-yl)-1H-pyrrolo[2,3-b]pyridin-5-yl)cyclohexyl)-1,4-oxazepane] as the compound, how does the IC50 read?
Its IC50 is 550 nM.

With `Cc1nc(-c2c[nH]c3ncc([C@H]4CC[C@@H](N5CCN(C)CC5)CC4)cc23)cs1` [Compound I-92, 2-methyl-4-(5-((1s,4s)-4-(4-methylpiperazin-1-yl)cyclohexyl)-1H-pyrrolo[2,3-b]pyridin-3-yl)thiazole] as the compound, how does the IC50 read?
The IC50 was greater than 1000 nM.

Which IC50 does the source give for `O=C(c1nc(-c2c[nH]c3ncc(C4CCC5(CC4)OCCO5)cc23)cs1)N1CCCCC1` [Compound I-25, {4-[5-(1,4-Dioxa-spiro[4.5]dec-8-yl)-1H-pyrrolo[2,3-b]pyridin-3-yl]-thiazol-2-yl}-piperidin-1-yl-methanone] here?
Its IC50 is 16 nM.

How did the IC50 turn out when `Cc1csc(-c2c[nH]c3ncc([C@H]4CC[C@H](N5CCOCC5)CC4)cc23)n1` [Compound I-61, 4-((1r,4r)-4-(3-(4-methylthiazol-2-yl)-1H-pyrrolo[2,3-b]pyridin-5-yl)cyclohexyl)morpholine] was run?
Its IC50 is 575 nM.

`O=C(c1nc(-c2c[nH]c3ncc([C@H]4CC[C@H](N5CCOCC5)CC4)cc23)cs1)N1CCOCC1` [Compound I-34, morpholino(4-(5-((1r,4r)-4-morpholinocyclohexyl)-1H-pyrrolo[2,3-b]pyridin-3-yl)thiazol-2-yl)methanone] was tested. Which IC50 did it give?
The IC50 was 162 nM.

With `CCOc1nc(-c2c[nH]c3ncc([C@H]4CC[C@H](N5CCCOCC5)CC4)cc23)cs1` [Compound I-125, 3-(2-ethoxy-1,3-thiazol-4-yl)-5-[trans-4-(1,4-oxazepan-4-yl)cyclohexyl]-1H-pyrrolo[2,3-b]pyridine] as the compound, how does the IC50 read?
The IC50 was 520 nM.

With `c1nc(-c2c[nH]c3ncc([C@H]4CC[C@H](N5CCOCC5)CC4)cc23)cs1` [Compound I-59, 4-((1r,4r)-4-(3-(thiazol-4-yl)-1H-pyrrolo[2,3-b]pyridin-5-yl)cyclohexyl)morpholine] as the compound, how does the IC50 read?
The IC50 was 813 nM.

system: panel of 100 kinases; assay: Selectivity against a panel of kinases (Upstate/Millipore), expressed as Gini coefficient; assay type: biochemical; conditions: reference compounds with aromatic C(5) group, calculated from Table 4 data, concentration not given
Method: Selectivity of Compounds (I) Against a Panel of Kinases
Inhibitory potency of compound (I-8) and (I-60) at a concentration of 1 micromolar and (I-69) and (I-70) at a concentration of 5 micromolar with ATP concentration of 10 micromolar was determined at Upstate/Millipore against a panel of 100 kinases representing all major families within the kinome. The results are presented in Table 3 and are expressed as percentage of remaining activity.
For comparison purposes Table 4 contains the relevant inhibitory data for reference compounds A-L containing a (hetero)aromatic ring at C(5) of the 7-azaindole system.
Selectivity Expressed as Gini Coefficient
Selectivity of compounds according to the present invention and reference compounds expressed as Gini coefficient (J. Med. Chem. 2007, 50, 5773-5779) is shown in Table 5. The individual Gini coefficients have been calculated using the data in Tables 3 and 4. Value Gini=0 corresponds to a totally non-selective compound; value Gini=1 reflects perfect selectivity (inhibition of a single target only)

How did the “Selectivity expressed as Gini coefficient” value (shortened to “Selectivity expressed”) turn out when `c1nc2[nH]cc(-c3cn[nH]c3)c2cc1-c1csc(C2CCNCC2)n1` [C] was run?
The value was 0.4129.

With `CN1CCN(C(=O)c2nc(-c3c[nH]c4ncc(-c5ccc(N6CCN(C)CC6)cc5)cc34)cs2)CC1` [J] as the compound, how does the “Selectivity expressed” value read?
Its value is 0.3286.

`O=C(c1nc(-c2c[nH]c3ncc(-c4ccccc4)cc23)cs1)N1CCOCC1` [K] was tested. Which “Selectivity expressed” value did it give?
Its value is 0.2968.

Which “Selectivity expressed” value does the source give for `CN1CCN(c2ccc(-c3cnc4[nH]cc(-c5csc(C(=O)N6CCCCC6)n5)c4c3)cc2)CC1` [D] here?
Its value is 0.2705.

`CN(C)c1ccc(-c2cnc3[nH]cc(-c4cn[nH]c4)c3c2)cc1` [A] was tested. Which “Selectivity expressed” value did it give?
Its value is 0.3368.

With `c1ncc(-c2c[nH]c3ncc(-c4ccc(N5CCOCC5)cc4)cc23)s1` [L] as the compound, how does the “Selectivity expressed” value read?
Its value is 0.3642.

How did the “Selectivity expressed” value turn out when `CC(C)Cn1cc(-c2cnc3[nH]cc(-c4cnn(C)c4)c3c2)cn1` [F] was run?
The value was 0.3777.

For `CN1CCN(c2nc(-c3c[nH]c4ncc(-c5ccccc5)cc34)cs2)CC1` [H], which “Selectivity expressed” value is on record?
The value was 0.4917.

How did the “Selectivity expressed” value turn out when `CN1CCC(c2csc(-c3cnc4[nH]cc(-c5cnn(C)c5)c4c3)n2)CC1` [E] was run?
Its value is 0.3757.

How did the “Selectivity expressed” value turn out when `Cn1cc(-c2c[nH]c3ncc(-c4ccc(N5CCOCC5)cc4)cc23)cn1` [B] was run?
Its value is 0.3920.

`CN(C)C(=O)c1nc(-c2c[nH]c3ncc(-c4ccccc4)cc23)cs1` [G] was tested. Which “Selectivity expressed” value did it give?
Its value is 0.3501.
